“Also recorded” adds a separate entry of the source.
Columns and labels:
TGF-β signaling = settings: low concentrations of paclitaxel; nude mouse model of scleroderma; cited from earlier work
[1] = system: collagen synthesis in the lung (bleomycin-induced lung fibrosis); test: Bleomycin-induced lung fibrosis: fractional synthesis of collagen (2H2O labeling, GC/MS of OHP); format: in vivo, mice
Experimental: Bleomycin administration induces at least a three fold increase in the fractional synthesis of OHP as measured by GC/MS. Inhibition or reversal of the fibrotic response is determined by a reduction in OHP synthesis when compared with the bleomycin-vehicle control.
Animals: Female C57BU6 mice, 10 weeks of age at the start of the study were used. Food and water were available ad lib for the study duration. Study groups are as stated in table 1.
Protocol: Bleomycin (Sigma-Aldrich) was dissolved in sterile saline at a concentration of 1.05 U/ml. 30 μl of the bleomycin solution or the same volume of vehicle (sham control) was installed into the trachea of female C57BI/6 mice by the trans-oral route to yield a dose of 1.5 U/kg of bleomycin. […] Label (8% ^2H2O in drinking water) and drug administration continued for the 2 week study duration.
On the day following the last drug administration, the mice were placed under heavy anesthesia and blood was collected via cardiac puncture. The lung was perfused with isotonic saline, removed and weighed. The lung was homogenized with a MiniBeadbeater-96™ (Biospec, Bartlesville, Okla.) bead mill, and the total volume of homogenate was determined. The homogenate was subjected to acetone precipitation in order to obtain the total tissue protein for OHP assessment. The proteins were hydrolyzed by incubation in HCl, dried under vacuum and then suspended in a solution of 50% acetonitrile, 50 mM K2HPO4 and pentafluorobenzyl bromide before incubation. Derivatives were extracted into ethyl acetate, and the top layer was removed and dried by vacuum centrifugation. […] The derivatized OHP was analyzed by GC/MS, performed in the negative chemical ionization mode. […] Incorporation of ^2H into OHP was calculated as the molar fraction of molecules with one excess mass unit above the natural abundance fraction (EM1). Fractional synthesis (f) of collagen was calculated as the ratio of the EM1 value in protein-bound OHP to the maximal value possible at the body ^2H2O enrichment present. […]

[2] = system: total collagen (OHP) content of the lung (bleomycin-induced lung fibrosis); test: Bleomycin-induced lung fibrosis: total OHP content of lung by chloramine-t assay; format: in vivo, mice; settings: noscapine for 2 weeks after bleomycin 1.5 U/kg
Experimental: Protocol: Bleomycin (Sigma-Aldrich) was dissolved in sterile saline at a concentration of 1.05 U/ml. 30 μl of the bleomycin solution or the same volume of vehicle (sham control) was installed into the trachea of female C57BI/6 mice by the trans-oral route to yield a dose of 1.5 U/kg of bleomycin. […] Label (8% ^2H2O in drinking water) and drug administration continued for the 2 week study duration. […] In addition to the GC/MS analysis, the absolute amount of collagen in the samples was determined by a chloramine-t assay of total OHP, a well established colorimetric method for determining OHP content. Samples of the original homogenate (400 μl) were hydrolyzed (HCl, 500 μl), dried, re-suspended in 1 ml of assay buffer, and incubated overnight. 150 μl of the suspension was pipetted into wells of a 96 well plate. 75 μl of chloramine-t was added to the well and the plate was incubated at room temperature for 20 min. Dimethylaminobenzaldehyde (75 μl) was then added to each well. The plate was incubated at 60° C. for 15 min before being read on a microquant (Bio-Tek Instruments, Inc. MQX200) at 540 nm. OHP standards were prepared and analyzed with the samples. Results were analyzed using GraphPad Prism to interpolate values from the standard curve. […]

[3] = system: α-SMA positive lung cells (activated myofibroblasts); test: Bleomycin-induced lung fibrosis: histology of αSMA positive lung cells; format: in vivo, mice; settings: relative to vehicle+bleomycin control; 2 weeks after bleomycin; FIG. 4
Experimental: Protocol: Bleomycin (Sigma-Aldrich) was dissolved in sterile saline at a concentration of 1.05 U/ml. 30 μl of the bleomycin solution or the same volume of vehicle (sham control) was installed into the trachea of female C57BI/6 mice by the trans-oral route to yield a dose of 1.5 U/kg of bleomycin. […] Label (8% ^2H2O in drinking water) and drug administration continued for the 2 week study duration. […] The differentiation of fibroblastic cells into myofibroblasts which express α-smooth muscle actin (α-SMA) is a major process the development of fibrosis. αSMA is a well recognized indicator of activated myofibroblasts. A small sample (5 to 20 mg) of the lung was excised from the center of the left lobe, immediately fixed in formalin, and sent for histological examination (Premier Laboratory LLC, Longmont Colo., USA). Briefly, paraffin embedded slides were prepared from the formalin-fixed tissue and then stained using an antibody for αSMA. Prepared slides were scanned, photographed, and subsequently analyzed for the presence of αSMA positive cells using ImageScope software (Aperio Technologies Inc., Vista Ca). Statistics: An analysis of variance followed by a Dunnett's test for comparison with drug vehicle/bleomycin control was used to analyze the data (SigmaStat). Data were considered significant at p<0.05.

[4] = system: collagen synthesis in the liver (ANIT-induced liver fibrosis); test: ANIT-induced liver fibrosis: fractional synthesis of collagen (2H2O labeling, GC/MS of OHP); format: in vivo, mice; settings: for amount of newly synthesized collagen in the liver: separate study
From the text: Alpha-Naphthylisothiocyanate (ANIT) is a hepatotoxicant that damages biliary cells and hepatocytes. Prolonged exposure to ANIT induces bile duct hyperplasia and biliary fibrosis, as well as liver injury. ANIT is conjugated with glutathione in hepatocytes and secreted into the bile (reviewed in Xu, 2004). However, the ANIT-glutathione complexes are unstable and rapidly dissociate in the bile causing the hepatocytes to reuptake the drug. Recycling can continue for many rounds, delaying ANIT elimination and depleting glutathione. In addition to its direct cytotoxic effects, ANIT also induces a hepatic inflammatory response that contributes to the tissue injury. Chronic administration of ANIT to rodents results in a significant increase in liver collagen and is used as an animal model of liver fibrosis (Xu et al, 2004). […] Inhibition or reversal of the fibrotic response is determined by a reduction in collagen synthesis when compared with the ANIT-vehicle control.
Subjects: Female C57BU6 mice, 10 weeks of age at the start of the study were used. The animals were housed in groups of 5, under standard laboratory conditions, with food and water available ad lib. Study groups are as stated in table 2 (po signifies oral gavage).
Mice were fed a diet adulterated with 0.05% (w/w) ANIT or a control diet for two weeks in order to induce a fibrotic response in the liver. The mice were labeled with 8% ^2H2O (Spectra Stable Isotopes, Columbia, Md.) beginning on the day that ANIT administration began.
On the day following the last drug administration, mice were placed under heavy anesthesia, and the liver was perfused and removed. Liver tissue was homogenized with a MiniBeadbeater 96™ bead mill (Biospec, Bartlesville, Okla.) followed by acetone precipitation and vacuum drying. Proteins were hydrolyzed in 6 N HCl (110° C., 16 hours), dried under vacuum and suspended in 1 mL 50% acetonitrile, 50 mM K2HPO4, pH 11. Pentafluorobenzyl bromide was added before the sealed mixture was incubated (100° C.; 1 hour) and extracted into ethyl acetate. The top layer was removed and dried by addition of solid Na2SO4 followed by vacuum centrifugation. Samples were incubated with 50 μL methyl imidazole and 100 μL MTBSTFA, (100° C. for 30 min). The derivative was extracted in water/petroleum ether and dried with Na2SO4. Selected ion monitoring was at mass-to-charge ratios of 445, 446, and 447 for the OH-proline derivatives. Mole % excess M1 enrichment (EM1) and fractional synthesis (f) are calculated.
Statistics: An analysis of variance followed by a Dunnett's test for comparison with ANIT/vehicle control was used to analyze the data (SigmaStat). Data were considered significant at p<0.05.

[5] = system: OHP content of the liver (ANIT-induced liver fibrosis); test: ANIT-induced liver fibrosis: absolute amount of OHP in liver by chloramine-t assay; format: in vivo, mice
Experimental: Mice were fed a diet adulterated with 0.05% (w/w) ANIT or a control diet for two weeks in order to induce a fibrotic response in the liver. The mice were labeled with 8% ^2H2O (Spectra Stable Isotopes, Columbia, Md.) beginning on the day that ANIT administration began. […] In addition to the GC/MS analysis, the absolute amount of OHP in the samples was determined by a chloramine-t assay as described above for the bleomycin studies. Statistics: An analysis of variance followed by a Dunnett's test for comparison with ANIT/vehicle control was used to analyze the data (SigmaStat). Data were considered significant at p<0.05.

[6] = system: liver collagen content (ANIT-induced liver fibrosis); test: ANIT-induced liver fibrosis: histological collagen content (Masson's Trichrome stain); format: in vivo, mice; settings: noscapine administered with ANIT, FIG. 10
Experimental: Mice were fed a diet adulterated with 0.05% (w/w) ANIT or a control diet for two weeks in order to induce a fibrotic response in the liver. The mice were labeled with 8% ^2H2O (Spectra Stable Isotopes, Columbia, Md.) beginning on the day that ANIT administration began. […] A small sample (75 to 80 mg) of the liver was excised from the lateral right lobe, immediately fixed in formalin, and sent for histological examination (Premier Laboratory LLC, Longmont Colo., USA). Briefly, paraffin embedded slides were prepared from the formalin-fixed tissue and then treated with Masson's Trichrome stain for collagen distribution. Prepared slides were scanned, photographed, and subsequently analyzed for collagen content using ImageScope software (Aperio Technologies Inc., Vista Ca). Statistics: An analysis of variance followed by a Dunnett's test for comparison with ANIT/vehicle control was used to analyze the data (SigmaStat). Data were considered significant at p<0.05.

[7] = as alternative to corticosteroid and/or immunosuppressive drugs; cited from earlier work

CC(=O)O[C@H]1C(=O)[C@@]2(C)[C@H]([C@H](OC(=O)c3ccccc3)[C@]3(O)C[C@H](OC(=O)[C@H](O)[C@@H](NC(=O)c4ccccc4)c4ccccc4)C(C)=C1C3(C)C)[C@]1(OC(C)=O)CO[C@@H]1C[C@@H]2O [Paclitaxel, paclitaxel]
Smad2 and Smad3 phosphorylation in SSc grafts (TGF-β signaling): markedly suppressed Smad2 and Smad3 phosphorylation
collagen deposition in SSc grafts (TGF-β signaling): decreased collagen deposition

COc1ccc2c(c1OC)C(=O)O[C@@H]2[C@H]1c2c(cc3c(c2OC)OCO3)CCN1C [noscapine]
bleomycin-induced increase of collagen synthesis (fractional synthesis, percent labeled OHP, f) ([1]; noscapine 300 mg/kg po (oral gavage) for 2 weeks from the day of bleomycin, FIG. 5): blocked the bleomycin-induced increase of collagen synthesis
percent of newly synthesized collagen (% new OHP, f) ([1]; noscapine in diet (2 g/kg food, approx. 300 mg/kg) for 2 weeks from the day of bleomycin, FIG. 6): tended to reduce the % new OH—P, but the effect was not statistically significant; also recorded: tended to reduce the percent of newly synthesized collagen
bleomycin-induced increase of collagen synthesis (fractional synthesis, percent labeled OHP, f) ([1]; noscapine ip (10, 30, 100 mg/kg) for 2 weeks from the day of bleomycin 1.5 U/kg trans-oral, FIG. 1): blocked the bleomycin-induced increase of collagen synthesis
total collagen (OHP) content of the lung ([2]; chloramine-t assay, FIG. 2): blocked by noscapine in a dose related manner
absolute amount of newly synthesized collagen in the lung (f times total OHP content) ([2]; FIG. 3): significantly decreased
number of alpha smooth muscle actin (αSMA) positive cells in lung [3]: significantly reduced the number of myofibroblasts activated by bleomycin; also recorded: significantly decreased the number of alpha smooth muscle actin (αSMA) positive cells
ANIT-induced elevation of new OHP (percent labeled OHP, f) in the liver ([4]; noscapine at 30 and 100 mg/kg po, p<0.05 vs ANIT/vehicle, FIG. 7): significantly reduced the ANIT-induced elevation of OHP
percent of newly synthesized collagen in the liver (percent labeled OHP, f) ([4]; noscapine po (oral gavage) 10, 30, 100 mg/kg with 0.05% ANIT diet for 2 weeks, FIG. 7): dose dependently reduced the percent of newly synthesized collagen
amount of newly synthesized collagen in the liver ([4]; noscapine 300 mg/kg by oral gavage once per day with ANIT, FIG. 12): tended to decrease the amount of newly synthesized collagen
amount of newly synthesized collagen in the liver ([4]; noscapine 300 mg/kg in the diet (2 g/kg food) with ANIT, FIG. 11): tended to decrease the amount of newly synthesized collagen
total amount of OHP in the whole liver ([5]; chloramine-t assay, noscapine po with ANIT for 2 weeks, vs ANIT plus vehicle control, FIG. 8): significantly reduced the ANIT-induced elevation of OHP content
ANIT-induced elevation of collagen synthesis, absolute (f x [OHP]) in the liver ([5]; noscapine at 30 and 100 mg/kg po, p<0.05 vs ANIT/vehicle, FIG. 9): significantly reduced the ANIT-induced elevation of collagen synthesis
amount of newly synthesized collagen in the whole liver (f x [OHP]) ([5]; noscapine po with ANIT for 2 weeks, vs ANIT plus vehicle control, FIG. 9): significantly reduced
histologically determined collagen content of liver [6]: significantly decreased ANIT-induced collagen content; also recorded: significant decrease in collagen content

COc1cc2c(c(OC)c1OC)-c1ccc(OC)c(=O)cc1[C@@H](NC(C)=O)CC2 [Colchicine, colchicine]
safety and efficacy in the treatment of IPF [7]: safer, but not effective

From patent publication US20110288114A1, “COMPOSITIONS FOR THE TREATMENT OF FIBROTIC DISEASES OR CONDITIONS” (Kinemed, Inc., priority 2008, published 2011)
